Laboratory results reported in US4545982A, “Pyranone compounds and skin-lightening cosmetic preparations or local demelanizing agents containing the same” (Yakurigaku Chuo Kenkyusho, priority 1982, dated 1985).

Assays:
[1] = test system: tyrosinase; experiment: Inhibitory action of pretreated (hydrolyzed) 3-acyloxy-4(H)-pyran-4-one on tyrosinase activity; format: biochemical; conditions: 1.0% solution pretreated by hydrolysis at pH 11.0 or 2.0, 70° C., 30 minutes; L-tyrosine, pH 6.8, 37° C., absorbance at 475 mμ
Protocol: 3-Acetoxy-4(H)-pyran-4-one was dissolved in ethanol, and the solution was adjusted to pH 6.0 with succinic acid or potassium carbonate to give a 1.0% 3-acetoxy-4(H)-pyran-4-one solution.
As the pretreatment, two samples (each 10 ml) were taken from the solution. To the two samples were added 1% Na2 CO3 and 0.01% HCl to adjust the pH to 11.0 and 2.0, respectively. The adjusted samples were hydrolyzed by heating at 70° C. with stirring for 30 minutes.
To a test tube were added 1 ml of a L-tyrosine solution (0.3 mg/ml), 1 ml of McIlvaine's buffer solution (pH 6.8) and 0.9 ml of the 3-acetoxy-4(H)-pyran-4-one solution pretreated as described above. The mixture was incubated at 37° C. for 10 minutes, and 0.1 ml of a tyrosinase solution (1 mg/ml) was added thereto and stirred thoroughly. The absorbance at 475 mμ was immediately determined by a spectrophotometer with time. On the other hand, the absorbance of water was determined similarly with time as a control.

[2] = test system: purified bacterial lipase; experiment: Enzymatic hydrolysis of acyl compounds by purified bacterial lipase (ferric chloride coloring); format: in vitro ADME; design: key: +: light wine color; ++: deep wine color; +++: dark wine color; --: no coloration; ±: indistinct coloration; conditions: 0.05M substrate emulsion, 37° C., 1 hr
Protocol: (§1) (1) Substrate solution: A solution containing 2% polyvinyl alcohol in M/15 phosphate buffer solution (pH 7.0) was prepared. The respective acyl compounds were added to the solution in a concentration of 0.05M and homogenized in a homogenizer to give emulsions.
(§2) (2) Enzymatic solution: 30 mg of purified bacterial lipase was dissolved in 100 ml of water. As an organic crude enzymatic solution, there was used a triturated solution of a shaved skin and pancreas of a rat weighing about 200 g.
(§3) (3) The compositions were as follows:
(§4) The composition was incubated at 37° C. for 1 hr, and the reaction was stopped by 5% metaphosphoric acid. 0.5 ml of ferric chloride reagent (0.1% aqueous solution) was added to 5 ml of the supernatant liquid after the centrifugal precipitation to observe the coloring (wine color) thereof.

[3] = test system: triturated solution of a shaved skin of a rat; experiment: Enzymatic hydrolysis of acyl compounds by rat skin homogenate (ferric chloride coloring); format: in vitro ADME; design: key: +: light wine color; ++: deep wine color; +++: dark wine color; --: no coloration; ±: indistinct coloration; conditions: 0.05M substrate emulsion, 37° C., 1 hr
Protocol: as §1, §2, §3, §4

[4] = test system: triturated solution of pancreas of a rat; experiment: Enzymatic hydrolysis of acyl compounds by rat pancreas homogenate (ferric chloride coloring); format: in vitro ADME; design: key: +: light wine color; ++: deep wine color; +++: dark wine color; --: no coloration; ±: indistinct coloration; conditions: 0.05M substrate emulsion, 37° C., 1 hr
Protocol: as §1, §2, §3, §4

[5] = test system: tyrosinase; experiment: Inhibitory action on tyrosinase activity (absorbance at 475 mμ with time); format: biochemical; conditions: 40 μg in 0.9 ml test solution, L-tyrosine, pH 6.8, 37° C., absorbance at 475 mμ with time (FIG. 1)
Protocol: To a test tube were added 0.9 ml of a test solution, containing 40 μg of pyranone described above, which solution was obtained by adding the pyranone to 30% aqueous solution of propylene glycol; 1 ml of L-tyrosine solution (0.3 mg/ml); and 1 ml McIlvaine's buffer solution (pH 6.8), and the mixture was incubated at 37° C. for 10 minutes. 0.1 ml of a tyrosinase solution (1 mg/ml) was then added to the incubated mixture and stirred thoroughly. The absorbance at 475 mμ of the mixture was immediately measured by a spectrophotometer with time. As a control, the absorbance at 475 mμ of a 30% aqueous solution of propylene glycol instead of the above test solution was measured with time.
FIG. 1 is a graph to illustrate the effect described above, and agreement of the line showing the absorbance in the case of 3-hydroxy-4(H)-pyran-4-one with the abscissa (time) of the graph clearly indicates the remarkable effect of the 3-hydroxy-4(H)-pyran-4-one.

[6] = test system: melasma on human face; experiment: Action on the melanization in the human skin (melasma, ointment application); format: in vivo; conditions: 3 times a day, 3 months, 10 volunteers
From the text: Action of 3-hydroxy-4(H)-pyran-4-one and acyl derivatives thereof on the melanization in the human skin.
The test substance was mixed and dissolved in a hydrophilic ointment according to the Japanese Pharmacopoeia and applied to a melasma on one side of each human face 3 times a day. In the control, only the hydrophilic ointment was applied to a melasma on the other side of the human face in the similar way.

[7] = Mutagenicity
[8] = Germicidal action and antibiotic-like action
[9] = Reducing action; format: physicochemical

SMILES | Inhibitory action on tyrosinase activity [1] | Ratio of formation of 3-hydroxy-4(H)--pyran-4-one, Bacterial lipase (purified) [2] | Ratio of formation of 3-hydroxy-4(H)--pyran-4-one, Homogenate Rat's skin [3] | Ratio of formation of 3-hydroxy-4(H)--pyran-4-one, Homogenate Rat's pancreas [4] | Inhibitory action on tyrosinase activity [5] | Results: Effective (number of volunteers) ([6]; 0.5% in hydrophilic ointment) | Results: Ineffective (number of volunteers) ([6]; 0.5% in hydrophilic ointment) | Results: Remarkably effective (number of volunteers) ([6]; 0.5% in hydrophilic ointment) | Results: Effective (number of volunteers) ([6]; 1% in hydrophilic ointment) | Results: Ineffective (number of volunteers) ([6]; 1% in hydrophilic ointment) | Results: Remarkably effective (number of volunteers) ([6]; 1% in hydrophilic ointment) | Mutagenicity [7] | Germicidal action and antibiotic-like action [8] | Reducing action [9] | Results: Effective (number of volunteers) ([6]; 2% in hydrophilic ointment) | Results: Ineffective (number of volunteers) ([6]; 2% in hydrophilic ointment) | Results: Remarkably effective (number of volunteers) ([6]; 2% in hydrophilic ointment)
CC(=O)Oc1coccc1=O [3-acetoxy-4(H)-pyran-4-one, 3-Acetoxy-4(H)-pyran-4-one] | Results similar to those of the 3-hydroxy-4(H)-pyran-4-one | + | +++ | +++ | – | – | – | – | – | – | – | – | – | – | – | – | –
O=c1ccocc1O [3-hydroxy-4(H)-pyran-4-one] | – | – | – | – | stronger inhibitory action on the tyrosinase activity than 3-hydroxy-chromone (chromonol) and kojic acid, and a far stronger inhibitory action than vitamin C | 3 | 2 | 5 | 2 | 0 | 8 | no mutagenicity | deficient in germicidal action and antibiotic-like action | weak reducing action | – | – | –
CCCCCCCCCCCCCCCC(=O)Oc1coccc1=O [3-palmitoyloxy-4(H)--pyran-4-one, 3-palmitoyloxy-4(H)-pyran-4-one] | – | ± | ++ | ++ | – | 2 | 3 | 5 | 4 | 0 | 6 | – | – | – | 2 | 0 | 8
